Source: paper PMC6218659, “Structures of DPAGT1 Explain Glycosylation Disease Mechanisms and Advance TB Antibiotic Design” (Cell, 2018)
Numbering of substitutions follows the chain as printed. Values after ≈ are worked out from the molar mass of the structure shown. Structures can show the parent of a compound that is named as a salt.

Legend:
E. coli ATCC25922 = test: Micro-broth dilution and drop plate antimicrobial susceptibility test; assay type: cell-based; conditions: Escherichia coli
Protocol: (§1) In a sterile 96-well plate, serial dilutions were made with the test substance to final volume of 50 μl. Inoculum was then prepared in Mueller-Hinton broth to 0.5 McFarland and diluted before adding 50 μl to the well to make ∼1x10^5 CFU/ml. The culture plate was incubated at 35 °C for 20-24 hrs. A positive growth control and sterility wells were also prepared along with the culture wells. Absorbance at OD600 was taken using BMG Labtech SPECTROstar Omega spectrophotometer. MIC is determined by the lowest concentration without growth. IC50 is determined from plotting a dose-response curve, see Data Analysis below. To determine the MBC, using a multi-channel pipette, 1 μl of culture broth was taken from the same 96-well microdilution growth plate and carefully inoculated on surface of MH agar plate. The plate is then incubated for additional 20 hrs. at 35 °C. The MBC value is the lowest concentration without observed growth on the agar.

P. aeruginosa ATCC27853 = test: as above; assay type: cell-based; conditions: Pseudomonas aeruginosa
Protocol: as §1

S. aureus ATCC29219 = test: as above; assay type: cell-based; conditions: Staphylococcus aureus
Protocol: as §1

DPAGT1 Leu168Pro = biological target: T1, DPAGT1 Leu168Pro (Homo sapiens, UniProt Q9H3H5, L168P); test: Thermostability assay (label free differential scanning fluorimetry); assay type: binding, H. sapiens; conditions: 50 μM compound
T1 construct: combined with the LIC-adapted primers to amplify the complete DPAGT1 gene, including the desired mutations; 6xHis purification tag with TEV site (N, cleaved yes); made in house; host or cells: Spodoptera frugiperda Sf9 insect cells (baculovirus)
T1 sequence (Q9H3H5 1-408 L168P): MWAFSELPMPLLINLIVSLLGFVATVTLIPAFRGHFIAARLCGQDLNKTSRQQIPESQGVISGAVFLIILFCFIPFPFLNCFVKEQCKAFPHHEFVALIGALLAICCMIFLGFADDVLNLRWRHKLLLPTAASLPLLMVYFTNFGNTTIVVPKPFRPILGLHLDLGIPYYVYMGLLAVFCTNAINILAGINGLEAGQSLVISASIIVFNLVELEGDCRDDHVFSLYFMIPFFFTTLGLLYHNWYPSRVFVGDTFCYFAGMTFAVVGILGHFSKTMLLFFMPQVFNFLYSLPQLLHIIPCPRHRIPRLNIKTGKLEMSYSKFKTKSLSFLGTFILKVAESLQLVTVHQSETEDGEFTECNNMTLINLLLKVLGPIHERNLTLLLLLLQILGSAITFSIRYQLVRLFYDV
Protocol: (§2) Samples with a volume of 40 μl were prepared containing 0.5 mg/ml protein and 50 μM compound or 5% DMSO in GFB. A glass capillary was dipped into each sample, with the capillary held horizontally to ensure that the capillary was full of the sample. The capillaries were placed on the capillary holder on the Nanotemper Prometheus. Technical triplicates of each sample were prepared, and each experiment was conducted with biological triplicates of each protein. PR.ThermControl software was used to run the experiment and analyse the data. A melting curve from 20 °C – 95 °C at 5 °C/min was performed. The minimum of the first derivative of the 330/350nm ratio was used to determine the Tm1/2.

DPAGT1 Val264Gly = biological target: T2, DPAGT1 Val264Gly (Homo sapiens, UniProt Q9H3H5, V264G); test: as above; assay type: binding, H. sapiens; conditions: 50 μM compound
T2 construct: H. sapiens DPAGT1 (1-408, Val264Gly, N-terminal 6 x HIS tag, TEV cleavage site); 6xHis purification tag with TEV site (N, cleaved yes); made in house; host or cells: Spodoptera frugiperda Sf9 insect cells (baculovirus)
T2 sequence (Q9H3H5 1-408 V264G): T1 sequence (Q9H3H5 1-408 L168P) with P168L, V264G
Protocol: as §2

Compound	IC50 (E. coli ATCC25922) [mg/L]	MBC (E. coli ATCC25922) [mg/L]	MIC (E. coli ATCC25922) [mg/L]	IC50 (P. aeruginosa ATCC27853) [mg/L]	MBC (P. aeruginosa ATCC27853) [mg/L]	MIC (P. aeruginosa ATCC27853) [mg/L]	IC50 (S. aureus ATCC29219) [mg/L]	MBC (S. aureus ATCC29219) [mg/L]	MIC (S. aureus ATCC29219) [mg/L]	Thermostability (Tm1/2) with added compound (DPAGT1 Leu168Pro) [°C]	Thermostability (Tm1/2) with added compound (DPAGT1 Val264Gly) [°C]
CCCCCCCC(=O)N[C@H]1[C@H](O[C@H]2O[C@H](CO)[C@@H](O)[C@H](O)[C@H]2NC(=O)CCCCCCC)O[C@H](C[C@@H](O)[C@H]2O[C@@H](n3ccc(=O)[nH]c3=O)[C@H](O)[C@@H]2O)[C@H](O)[C@@H]1O [TUN-8,8, Di-N-octanoyl-tunicamycin]	123 (≈ 150 µM)	400 (≈ 488 µM)	330 ± 120 (≈ 403 µM)	46.6 (≈ 56.9 µM)	> 400	83 ± 29 (≈ 101 µM)	58.4 (≈ 71.3 µM)	400 (≈ 488 µM)	170 ± 60 (≈ 208 µM)		
N[C@H]1[C@H](O[C@H]2O[C@H](CO)[C@@H](O)[C@H](O)[C@H]2N)O[C@H](C[C@@H](O)[C@H]2O[C@@H](n3ccc(=O)[nH]c3=O)[C@H](O)[C@@H]2O)[C@H](O)[C@@H]1O [TUN, α-D-glucosamine-(1”-11')-tunicamyl uracil dihydrochloride]										84.0±0.2	82.6±0.1
